Patent publication US20250145606A1 (Arcus Biosciences, Inc., priority 2023, published 2025)

Experiments:
c-Kit = c-Kit (Homo sapiens (Human), UniProt P10721); assay: Inhibition of c-Kit kinase activity (HTRF KinEASE-TK); type: biochemical; conditions: biochemical, HTRF KinEASE-TK
How it was run: (§1)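 Phosphorylation of biotinylated TK peptide read by HTRF (665/620 nm ratio) after 120 min at rt, following 1 h enzyme–compound preincubation. ATP (2× mix): 20 μM CSF1R, 16 μM c-Kit, 40 μM PDGFRβ, 1 μM PDGFRα; MgCl2 10 mM except c-Kit 5 mM. 22-point 1:2 titration; four-parameter IC50.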

CSF1R = CSF1R (Homo sapiens (Human), UniProt P07333); assay: Inhibition of CSF1R kinase activity (HTRF KinEASE-TK); conditions: biochemical, HTRF KinEASE-TK
CSF1R, sequence (P07333 20-972): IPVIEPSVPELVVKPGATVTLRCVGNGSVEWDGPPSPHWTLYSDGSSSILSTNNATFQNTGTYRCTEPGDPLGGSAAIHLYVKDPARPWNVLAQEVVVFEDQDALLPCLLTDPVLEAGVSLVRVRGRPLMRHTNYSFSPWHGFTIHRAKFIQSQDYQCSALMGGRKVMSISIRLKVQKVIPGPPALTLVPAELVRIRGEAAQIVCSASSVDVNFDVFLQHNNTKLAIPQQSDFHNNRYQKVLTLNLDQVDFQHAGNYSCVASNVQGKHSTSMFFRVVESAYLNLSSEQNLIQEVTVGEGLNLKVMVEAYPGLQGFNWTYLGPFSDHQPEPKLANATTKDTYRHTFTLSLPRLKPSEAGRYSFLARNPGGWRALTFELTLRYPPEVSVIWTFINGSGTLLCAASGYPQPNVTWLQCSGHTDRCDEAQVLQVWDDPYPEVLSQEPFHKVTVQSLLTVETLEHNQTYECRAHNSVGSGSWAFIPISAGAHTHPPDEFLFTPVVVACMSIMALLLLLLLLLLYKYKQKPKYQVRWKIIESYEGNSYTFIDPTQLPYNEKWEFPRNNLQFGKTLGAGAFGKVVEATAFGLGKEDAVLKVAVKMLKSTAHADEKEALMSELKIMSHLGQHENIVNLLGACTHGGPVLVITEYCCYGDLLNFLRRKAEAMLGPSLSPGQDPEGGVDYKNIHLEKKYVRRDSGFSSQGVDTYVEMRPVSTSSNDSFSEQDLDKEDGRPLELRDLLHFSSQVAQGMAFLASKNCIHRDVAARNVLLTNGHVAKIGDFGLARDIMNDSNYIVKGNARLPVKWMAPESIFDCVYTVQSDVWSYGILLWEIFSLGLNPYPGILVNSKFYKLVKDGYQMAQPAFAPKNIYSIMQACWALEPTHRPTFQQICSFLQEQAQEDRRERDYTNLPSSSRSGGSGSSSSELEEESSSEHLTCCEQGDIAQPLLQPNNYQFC
How it was run: as §1

FLT3 = FLT3 (Homo sapiens (Human), UniProt P36888); assay: Inhibition of FLT3 kinase activity (HTRF KinEASE-TK); type: biochemical; conditions: biochemical, HTRF KinEASE-TK
FLT3, sequence (P36888 27-993): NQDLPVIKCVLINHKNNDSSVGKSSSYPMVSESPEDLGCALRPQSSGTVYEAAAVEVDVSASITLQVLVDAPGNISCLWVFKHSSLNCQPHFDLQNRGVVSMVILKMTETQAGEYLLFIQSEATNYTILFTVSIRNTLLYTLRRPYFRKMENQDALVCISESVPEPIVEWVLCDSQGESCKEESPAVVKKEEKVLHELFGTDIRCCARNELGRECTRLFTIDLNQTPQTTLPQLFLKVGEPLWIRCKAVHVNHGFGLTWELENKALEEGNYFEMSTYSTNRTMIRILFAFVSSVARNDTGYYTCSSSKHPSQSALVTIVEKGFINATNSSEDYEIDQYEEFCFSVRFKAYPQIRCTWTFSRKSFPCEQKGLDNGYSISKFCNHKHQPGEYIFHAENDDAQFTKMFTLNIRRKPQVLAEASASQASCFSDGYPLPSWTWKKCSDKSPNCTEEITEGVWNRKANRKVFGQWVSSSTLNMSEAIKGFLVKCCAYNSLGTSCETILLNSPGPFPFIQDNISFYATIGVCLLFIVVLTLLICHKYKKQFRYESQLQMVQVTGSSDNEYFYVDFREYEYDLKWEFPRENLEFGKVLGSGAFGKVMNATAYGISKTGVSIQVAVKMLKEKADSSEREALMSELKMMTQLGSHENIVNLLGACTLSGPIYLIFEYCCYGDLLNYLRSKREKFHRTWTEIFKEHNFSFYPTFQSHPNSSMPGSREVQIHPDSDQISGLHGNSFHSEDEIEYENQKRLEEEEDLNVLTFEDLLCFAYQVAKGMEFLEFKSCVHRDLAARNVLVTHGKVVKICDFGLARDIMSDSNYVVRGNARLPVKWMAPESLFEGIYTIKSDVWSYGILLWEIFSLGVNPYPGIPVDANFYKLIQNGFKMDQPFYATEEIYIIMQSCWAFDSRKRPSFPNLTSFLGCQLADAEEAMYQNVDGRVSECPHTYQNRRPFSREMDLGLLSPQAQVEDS
Protocol: Inhibition of c-Kit, PDGFRα, PDGFRβ, CSFIR and FLT3 Kinase Activity
Compounds were evaluated to determine the potency with which they inhibit the kinase activity of the following panel of tyrosine kinases: c-Kit (SignalChem, Product #: K06-11BG), PDGFRα (SignalChem, Product #: P12-18G), PDGFRβ (SignalChem, Product #: P13-11G), CSFIR (SignalChem, Product #: C74-11G) and FLT3 (Invitrogen, Product #: PR4666C). Activity was determined as a function of phosphorylated biotinylated TK peptide generated by the transfer of phosphate from ATP as measured by the use of the HTRF KinEASE-TK assay kit (Cisbio, Product #: 62TKOPEJ). Levels of phosphorylated biotinylated TK peptide (Part 61TKOBLC of KinEASE assay kit) are quantified by its capture by phosphor-TK-Antibody-Cryptate (Part of KinEASE assay kit) and XL665-labeled Streptavidin (Part 610SAXLG of KinEASE assay kit) followed by measurement of Time-Resolved Fluorescence Resonance Energy Transfer (TR-FRET) signal. On the day of the assay, compounds were solubilized in DMSO and dispensed into a 384-well white Opti-plate (PerkinElmer, catalog #6007290) to generate a 22 point 1:2 titration. Enzyme solution was prepared for each of the tyrosine kinases in 50 mM HEPES, pH 7.4, 5 mM MgCl2 for c-Kit or 10 mM MgCl2 for FLT3, CSFIR, PDGFRa and PDGFRβ, 2 mM MnCl2, 0.01% Brij-35 and 0.01% BSA. Working enzyme concentrations were prepared for c-Kit at 2 nM (2×), PDGFRa and PDGFRß at 10 nM (2×), CSFIR at 2 nM (2×) and FLT3 at 0.4 nM (2×). Five microliters of enzyme dilution of each tyrosine kinase were added to their respective 384-well white Opti-plate pre-dispensed with compound and allowed to incubate for 1 h at rt. Utilizing the same enzyme buffer recipe, 2x substrate mixes were prepared for each enzyme as follows: For c-Kit, 1.6 μM (2×) TK substrate and 16 μM (2×) ATP (Promega, catalog #V915). For PDGFRα, 3.2 μM TK substrate and 1 μM ATP. For PDGFRβ, 3.2 μM TK substrate and 40 μM ATP. For CSFIR, […] TK substrate and 20 μM ATP. For FLT3, 3.2 μM TK substrate and 100 μM ATP. Reactions were initiated by addition of 5 μL of the respective 2x substrate mix to each well of the plates containing the respective tyrosine kinase enzymes and were allowed to proceed for 120 minutes at rt, except for FLT3, the reaction time is 45 min. Following the reaction, 10 μL of detection mix consisting of 0.2 μM (2×) of Streptavidin-XL665 and 2 μM (2×) of TK-Antibody-Cryptate prepared in detection buffer (Part 62SDBRDF of KinEASE assay kit) was added and then allowed to incubate for 60 min. The TR-FRET signal was quantified by measuring the ratio of emission at 665 nm to 620 nm after excitation at 320 nm by reading on a PerkinElmer Envision multimode reader. Compound potencies (IC50 values) were determined using a standard 4-parameter non-linear regression fit.

[1] = system: Phospho-KIT (Y703) in M07e cells; assay: Phospho-KIT (Y703) cellular assay in M07e cells; type: cell-based; conditions: M-07e; Phospho-KIT (Y703), M07e cells; read-out: M07e Cell IC50
How it was run: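 Serum-starved M07e cells preincubated 50 min at 37° C with 11-point half-log compound titration, then stimulated 10 min with SCF at 90.9 ng/mL final. Fixed, permeabilized cells stained for phospho-KIT Y703 and read by flow cytometry (live-gated geometric mean); IC50 by 4-parameter fit normalized to DMSO and positive control.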

PDGFRα = PDGFRα (Homo sapiens (Human), UniProt P16234); assay: Inhibition of PDGFRα kinase activity (HTRF KinEASE-TK); conditions: biochemical, HTRF KinEASE-TK
PDGFRα, sequence (P16234 24-1089): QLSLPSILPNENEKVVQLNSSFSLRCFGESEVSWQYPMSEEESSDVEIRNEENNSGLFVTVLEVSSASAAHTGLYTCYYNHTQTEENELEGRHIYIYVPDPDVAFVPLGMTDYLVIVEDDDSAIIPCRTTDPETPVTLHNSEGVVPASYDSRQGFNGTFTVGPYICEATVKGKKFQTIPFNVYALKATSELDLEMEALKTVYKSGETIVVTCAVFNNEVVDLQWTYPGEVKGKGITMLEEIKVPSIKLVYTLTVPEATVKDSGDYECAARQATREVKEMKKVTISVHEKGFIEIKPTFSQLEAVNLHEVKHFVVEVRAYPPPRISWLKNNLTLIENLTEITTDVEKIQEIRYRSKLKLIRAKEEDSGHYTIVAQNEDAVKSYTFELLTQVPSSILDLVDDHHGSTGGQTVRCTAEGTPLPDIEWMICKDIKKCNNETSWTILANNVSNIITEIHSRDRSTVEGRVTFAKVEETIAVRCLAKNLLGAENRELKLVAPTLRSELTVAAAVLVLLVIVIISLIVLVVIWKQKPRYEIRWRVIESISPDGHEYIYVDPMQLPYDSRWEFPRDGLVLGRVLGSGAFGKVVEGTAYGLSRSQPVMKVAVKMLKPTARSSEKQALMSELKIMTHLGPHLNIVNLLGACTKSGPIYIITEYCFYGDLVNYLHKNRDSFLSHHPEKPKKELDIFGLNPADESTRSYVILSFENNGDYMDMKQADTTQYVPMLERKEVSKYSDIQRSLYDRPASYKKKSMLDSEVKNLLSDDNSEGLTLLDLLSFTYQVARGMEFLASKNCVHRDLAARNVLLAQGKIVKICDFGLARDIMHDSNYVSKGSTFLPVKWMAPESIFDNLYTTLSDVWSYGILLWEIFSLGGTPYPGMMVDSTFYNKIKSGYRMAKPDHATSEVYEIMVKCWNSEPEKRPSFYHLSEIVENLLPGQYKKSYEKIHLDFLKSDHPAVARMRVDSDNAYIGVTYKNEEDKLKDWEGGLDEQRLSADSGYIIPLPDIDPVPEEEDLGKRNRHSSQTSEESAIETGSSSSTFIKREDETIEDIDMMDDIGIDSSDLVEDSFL
How it was run: as §1

PDGFRβ = PDGFRβ (Homo sapiens (Human), UniProt P09619); assay: Inhibition of PDGFRβ kinase activity (HTRF KinEASE-TK); conditions: biochemical, HTRF KinEASE-TK
PDGFRβ, sequence (P09619 33-1106): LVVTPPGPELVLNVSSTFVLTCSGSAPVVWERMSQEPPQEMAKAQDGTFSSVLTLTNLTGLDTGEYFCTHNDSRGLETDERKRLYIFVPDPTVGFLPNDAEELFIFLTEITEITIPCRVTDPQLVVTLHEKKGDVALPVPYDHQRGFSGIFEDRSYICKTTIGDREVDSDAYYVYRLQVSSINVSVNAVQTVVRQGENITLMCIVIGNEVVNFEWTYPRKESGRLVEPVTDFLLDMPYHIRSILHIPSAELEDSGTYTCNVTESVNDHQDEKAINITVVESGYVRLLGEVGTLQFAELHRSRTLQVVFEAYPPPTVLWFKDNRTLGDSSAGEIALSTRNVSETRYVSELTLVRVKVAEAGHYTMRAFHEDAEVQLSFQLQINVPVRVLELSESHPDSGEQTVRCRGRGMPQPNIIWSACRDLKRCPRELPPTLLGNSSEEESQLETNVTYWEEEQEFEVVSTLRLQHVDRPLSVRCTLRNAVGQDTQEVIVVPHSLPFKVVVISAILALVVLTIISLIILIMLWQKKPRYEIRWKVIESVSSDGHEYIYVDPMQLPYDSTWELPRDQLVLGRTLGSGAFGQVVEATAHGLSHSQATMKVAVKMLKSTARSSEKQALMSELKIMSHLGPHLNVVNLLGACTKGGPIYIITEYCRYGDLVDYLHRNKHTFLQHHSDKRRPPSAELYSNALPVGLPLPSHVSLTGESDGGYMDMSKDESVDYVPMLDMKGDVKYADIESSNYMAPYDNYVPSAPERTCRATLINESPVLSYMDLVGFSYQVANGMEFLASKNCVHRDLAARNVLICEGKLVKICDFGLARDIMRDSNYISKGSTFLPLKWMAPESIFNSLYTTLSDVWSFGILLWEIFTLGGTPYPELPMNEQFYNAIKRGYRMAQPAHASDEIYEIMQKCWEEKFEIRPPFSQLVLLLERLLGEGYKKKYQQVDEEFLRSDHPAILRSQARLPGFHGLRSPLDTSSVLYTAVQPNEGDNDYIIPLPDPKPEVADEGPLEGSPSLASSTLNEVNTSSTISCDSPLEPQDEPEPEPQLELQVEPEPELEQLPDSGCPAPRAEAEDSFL
How it was run: as §1

c-Kit, sequence (P10721 26-976): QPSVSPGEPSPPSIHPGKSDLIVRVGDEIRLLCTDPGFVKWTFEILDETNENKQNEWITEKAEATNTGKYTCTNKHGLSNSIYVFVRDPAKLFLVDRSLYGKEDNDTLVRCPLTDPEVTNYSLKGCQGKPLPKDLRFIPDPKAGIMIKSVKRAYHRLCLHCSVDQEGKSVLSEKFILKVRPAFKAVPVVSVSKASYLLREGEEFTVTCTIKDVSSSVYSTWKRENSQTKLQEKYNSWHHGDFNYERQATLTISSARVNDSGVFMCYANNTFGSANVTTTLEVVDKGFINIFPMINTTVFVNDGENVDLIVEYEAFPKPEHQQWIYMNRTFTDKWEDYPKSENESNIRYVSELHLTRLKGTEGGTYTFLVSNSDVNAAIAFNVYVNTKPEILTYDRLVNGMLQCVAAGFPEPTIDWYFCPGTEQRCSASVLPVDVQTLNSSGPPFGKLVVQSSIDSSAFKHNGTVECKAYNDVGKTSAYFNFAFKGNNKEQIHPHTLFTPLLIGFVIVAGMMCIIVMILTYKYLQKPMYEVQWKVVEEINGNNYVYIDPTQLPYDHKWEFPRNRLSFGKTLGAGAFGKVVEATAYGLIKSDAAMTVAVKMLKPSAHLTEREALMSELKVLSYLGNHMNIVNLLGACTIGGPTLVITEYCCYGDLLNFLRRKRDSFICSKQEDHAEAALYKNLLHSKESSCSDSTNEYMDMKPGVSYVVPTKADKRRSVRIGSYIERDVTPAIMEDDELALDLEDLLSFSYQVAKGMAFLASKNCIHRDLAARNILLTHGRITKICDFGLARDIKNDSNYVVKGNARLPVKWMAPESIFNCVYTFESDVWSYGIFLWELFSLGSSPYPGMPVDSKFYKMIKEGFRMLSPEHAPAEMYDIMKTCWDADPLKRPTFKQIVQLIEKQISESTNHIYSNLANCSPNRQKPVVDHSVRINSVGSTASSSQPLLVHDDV

IC50 (c-Kit) [µM] | IC50 (CSF1R) [µM] | IC50 (FLT3) [µM] | IC50 [1] [µM] | IC50 (PDGFRα) [µM] | IC50 (PDGFRβ) [µM] | SMILES
< 0.1 | 0.1 to 1 | > 1 | < 0.1 | – | – | Cc1cc(F)c(C(=O)NCC2(F)CCC2)cc1NC(=O)c1cnc(NC(=O)N2CCC2)s1 [Example 104, 2-(Azetidine-1-carbonylamino)-N-[4-fluoro-5-[(1-fluorocyclobutyl)methylcarbamoyl]-2-methylphenyl]-1,3-thiazole-5-carboxamide]
< 0.1 | – | > 1 | < 0.1 | > 1 | > 1 | COCCn1ccc(NC(=O)c2cc(NC(=O)c3cnc(N)s3)c(C)cc2F)n1 [Example 154, 2-Amino-N-[4-fluoro-5-[[1-(2-methoxyethyl)pyrazol-3-yl]carbamoyl]-2-methylphenyl]-1,3-thiazole-5-carboxamide]
< 0.1 | > 1 | > 1 | < 0.1 | – | – | Cc1ncc(C(=O)Nc2cc(C(=O)Nc3cnc(OC(F)(F)F)cn3)c(F)cc2C)s1 [Example 87, N-[5-(N-5-trifluoromethoxy-2-pyrazinylcarbamoyl)-4-fluoro-2-tolyl]-2-methyl-1,3-thiazole-5-carboxamide]
< 0.1 | > 1 | > 1 | < 0.1 | – | – | Cc1cc(F)c(C(=O)NCC2(F)CC2)cc1NC(=O)c1cnc(N)s1 [Example 193, 2-Amino-N-[4-fluoro-5-[(1-fluorocyclopropyl)methylcarbamoyl]-2-methylphenyl]-1,3-thiazole-5-carboxamide]
< 0.1 | – | > 1 | < 0.1 | > 1 | > 1 | Nc1ncc(C(=O)Nc2cc(C(=O)Nc3ccc(OC4CC4)cn3)c(F)cc2F)s1 [Example 222, 2-Amino-N-[5-[(5-cyclopropyloxypyridin-2-yl)carbamoyl]-2,4-difluorophenyl]-1,3-thiazole-5-carboxamide]
< 0.1 | > 1 | > 1 | < 0.1 | – | > 1 | Cc1cc(F)c(C(=O)Nc2ccn(-c3ccccn3)n2)cc1NC(=O)c1cnc(N)s1 [Example 168, 2-Amino-N-[4-fluoro-2-methyl-5-[(1-pyridin-2-ylpyrazol-3-yl)carbamoyl]phenyl]-1,3-thiazole-5-carboxamide]
< 0.1 | > 1 | > 1 | < 0.1 | – | – | Cc1ncc(C(=O)Nc2cc(C(=O)Nc3ccc(C4CC4)nc3)c(F)cc2C)s1 [Example 24, N-[5-[(6-Cyclopropylpyridin-3-yl)carbamoyl]-4-fluoro-2-methylphenyl]-2-methyl-1,3-thiazole-5-carboxamide]
< 0.1 | > 1 | > 1 | < 0.1 | – | – | Cc1ncc(C(=O)Nc2cc(C(=O)Nc3cnc(OC4CC4)cn3)c(F)cc2C)s1 [Example 13, N-[5-[(5-Cyclopropyloxypyrazin-2-yl)carbamoyl]-4-fluoro-2-methylphenyl]-2-methyl-1,3-thiazole-5-carboxamide]
< 0.1 | > 1 | > 1 | < 0.1 | – | – | Cc1ncc(C(=O)Nc2cc(C(=O)Nc3cnc(CC4CC4)cn3)c(F)cc2C)s1 [Example 91, N-{5-[N-5-(cyclopropylmethyl)-2-pyrazinylcarbamoyl]-4-fluoro-2-tolyl}-2-methyl-1,3-thiazole-5-carboxamide]
< 0.1 | > 1 | > 1 | – | > 1 | > 1 | Cc1cc(F)c(C(=O)Nc2ccc3c(n2)COC3)cc1NC(=O)c1cnc(N)s1 [Example 120, 2-Amino-N-[5-(5,7-dihydrofuro [3,4-b]pyridin-2-ylcarbamoyl)-4-fluoro-2-methylphenyl]-1,3-thiazole-5-carboxamide]
